Experimental data as given in US6924302B2, “Substituted triazole diamine derivatives as kinase inhibitors” (Ortho McNeil Pharmaceutical, Inc., priority 2000, dated 2005).
Like-named read-outs stand apart in the source and are kept apart here.

Key:
[1] = molecular target: Insulin Receptor Kinase (Homo sapiens, UniProt P06213); assay: Kinase Selectivity Assay Insulin Receptor Kinase; type: biochemical; settings: Kinase Selectivity, Tables 2a-2k; read-out: Insulin R Kinase IC50
In short: (§1)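 Biotinylated peptide phosphorylation measured as ^33P-γ-ATP incorporation on streptavidin plates after 1 h at 30° C, 1% DMSO final, enzyme in 50 mM Tris-HCl pH 8.0, 0.1% BSA. Compounds in duplicate at 8 concentrations, 100 uM to 10 pM. IC50 from percent inhibition versus log concentration.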

[2] = molecular target: T1, Protein Kinase A (Bos taurus, UniProt P00517); assay: Kinase Selectivity Assay Protein Kinase A; type: biochemical, bovine; settings: Kinase Selectivity, Tables 2a-2k; read-out: PKA IC50
T1 construct: purified from bovine heart; purchased Upstate Biotech 14-114; host or cells: bovine heart
In short: as §1

[3] = molecular target: T2, VEGF-R (vascular endothelial growth factor receptor-2) (Rattus norvegicus, UniProt O08775); assay: VEGF-R Screening Assay; type: biochemical; settings: read-out: VEGF-R IC50
T2 construct: polyhistidine (6xHIS) (N)

[4] = molecular target: T3, PDGF-R (platelet derived growth factor receptor) beta subunit kinase domain (Homo sapiens, UniProt P09619); assay: Kinase Selectivity Assay PDGF-R; type: biochemical; settings: Kinase Selectivity, Tables 2a-2k; read-out: PDGF-R kinase IC50
T3 construct: nucleotides 1874-3507 of the human PDGF-R beta subunit kinase domain; polyhistidine (N)
In short: as §1

[5] = molecular target: T4, Casein Kinase 2 (alpha and beta subunits) (Homo sapiens, UniProt P68400); assay: Kinase Selectivity Assay Casein Kinase 2; type: biochemical; settings: Kinase Selectivity, Tables 2a-2k; read-out: Caseine Kinase 2 IC50
T4 construct: purchased New England Biolabs 6010; host or cells: E. coli
In short: as §1

[6] = system: HCT-116 colon carcinoma; assay: Inhibition of Cell Proliferation (14C-thymidine incorporation), HCT-116; type: cell-based; settings: Homo sapiens, HCT-116 cell line
In short: (§2)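 Proliferation was gauged as incorporation of 14C-labelled thymidine into DNA. Plated cells were preincubated 24 h, given test compound for 24 h, then pulsed with 0.2 uCi/well methyl 14C-thymidine for 24 h in the continued presence of drug before washing and counting.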

[7] = system: A375 malignant melanoma; assay: Inhibition of Cell Proliferation (14C-thymidine incorporation), A375; type: cell-based; settings: Homo sapiens, A-375, A375 cell line
In short: as §2

[8] = system: HeLa cervical adenocarcinoma; assay: Inhibition of Cell Proliferation (14C-thymidine incorporation), HeLa; type: cell-based; settings: Homo sapiens, HeLa cell line
In short: as §2

[9] = Kinase Selectivity, Tables 2a-2k

T4 sequence (P68400 whole entry): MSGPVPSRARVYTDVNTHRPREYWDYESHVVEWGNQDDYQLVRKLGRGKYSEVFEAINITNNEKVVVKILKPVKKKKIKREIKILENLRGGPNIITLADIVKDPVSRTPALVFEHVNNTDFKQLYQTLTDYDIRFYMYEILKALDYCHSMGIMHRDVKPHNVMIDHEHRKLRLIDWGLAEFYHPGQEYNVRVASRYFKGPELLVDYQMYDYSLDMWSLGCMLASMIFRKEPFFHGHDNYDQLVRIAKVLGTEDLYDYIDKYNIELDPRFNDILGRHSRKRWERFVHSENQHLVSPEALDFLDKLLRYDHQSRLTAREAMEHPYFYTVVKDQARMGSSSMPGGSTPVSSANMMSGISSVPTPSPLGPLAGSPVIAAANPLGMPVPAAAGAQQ
T4 sequence (P67870 whole entry partner): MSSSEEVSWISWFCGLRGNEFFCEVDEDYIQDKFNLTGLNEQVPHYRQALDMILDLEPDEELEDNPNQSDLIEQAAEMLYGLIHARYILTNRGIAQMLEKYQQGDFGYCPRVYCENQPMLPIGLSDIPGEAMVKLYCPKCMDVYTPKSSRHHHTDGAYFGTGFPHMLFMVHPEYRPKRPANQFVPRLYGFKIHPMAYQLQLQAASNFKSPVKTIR
T2 sequence (O08775 786-1343): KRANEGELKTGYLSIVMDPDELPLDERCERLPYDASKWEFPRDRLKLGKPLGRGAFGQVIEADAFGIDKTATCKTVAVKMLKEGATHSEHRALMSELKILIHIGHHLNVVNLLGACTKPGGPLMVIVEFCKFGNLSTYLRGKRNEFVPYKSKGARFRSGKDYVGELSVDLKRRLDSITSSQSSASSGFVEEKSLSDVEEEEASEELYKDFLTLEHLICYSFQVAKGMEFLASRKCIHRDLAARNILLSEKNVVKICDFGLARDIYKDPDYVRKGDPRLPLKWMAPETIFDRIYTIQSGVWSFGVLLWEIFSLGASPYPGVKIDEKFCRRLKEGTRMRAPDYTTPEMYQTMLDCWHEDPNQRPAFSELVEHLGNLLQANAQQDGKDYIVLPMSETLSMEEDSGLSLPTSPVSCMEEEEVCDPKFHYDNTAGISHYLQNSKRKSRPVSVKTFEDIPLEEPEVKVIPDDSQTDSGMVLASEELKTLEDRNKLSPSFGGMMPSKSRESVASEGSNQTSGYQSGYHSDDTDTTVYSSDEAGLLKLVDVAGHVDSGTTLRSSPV
Chain of Insulin Receptor Kinase (P06213 980-1352): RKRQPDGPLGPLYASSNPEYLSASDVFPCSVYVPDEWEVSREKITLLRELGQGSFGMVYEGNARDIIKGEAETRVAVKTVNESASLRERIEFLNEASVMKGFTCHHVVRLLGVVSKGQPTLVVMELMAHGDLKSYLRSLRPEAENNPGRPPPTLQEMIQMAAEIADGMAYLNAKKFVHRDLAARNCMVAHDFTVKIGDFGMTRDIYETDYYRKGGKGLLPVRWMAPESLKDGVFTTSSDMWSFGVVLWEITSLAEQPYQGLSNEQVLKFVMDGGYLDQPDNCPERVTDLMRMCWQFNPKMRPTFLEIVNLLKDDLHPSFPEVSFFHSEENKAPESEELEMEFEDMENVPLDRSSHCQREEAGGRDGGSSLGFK
T3 sequence (P09619 564-1106): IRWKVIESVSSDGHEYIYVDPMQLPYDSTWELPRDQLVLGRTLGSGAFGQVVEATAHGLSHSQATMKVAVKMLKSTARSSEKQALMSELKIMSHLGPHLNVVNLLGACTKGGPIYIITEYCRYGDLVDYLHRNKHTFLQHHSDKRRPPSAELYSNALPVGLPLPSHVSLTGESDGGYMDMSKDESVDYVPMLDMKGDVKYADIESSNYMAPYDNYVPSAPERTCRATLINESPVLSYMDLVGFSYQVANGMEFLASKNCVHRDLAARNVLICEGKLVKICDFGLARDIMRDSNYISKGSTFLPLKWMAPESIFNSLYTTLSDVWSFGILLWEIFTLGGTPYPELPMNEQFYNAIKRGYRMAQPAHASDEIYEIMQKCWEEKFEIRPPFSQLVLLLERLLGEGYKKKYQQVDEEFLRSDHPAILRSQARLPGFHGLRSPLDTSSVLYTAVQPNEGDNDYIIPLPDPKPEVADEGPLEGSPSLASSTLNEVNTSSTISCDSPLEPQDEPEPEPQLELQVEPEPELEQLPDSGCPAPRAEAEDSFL

Structure (SMILES)	IC50 [1]	IC50 [2]	IC50 [3, 9]	IC50 ([3]; Table 1)	IC50 [4]	IC50 [5]	IC50 [6]	IC50 [7]	IC50 [8]
Nc1nc(Nc2ccc(S(N)(=O)=O)cc2)nn1C(=O)c1cccs1 [Cpd 14, 4-[[5-amino-1-(2-thienylcarbonyl)-1H-1,2,4-triazol-3-yl]amino]-benzenesulfonamide]	1.2 µM	5.43 µM	26 nM	26.7 nM	189 nM	8.05 µM	1940 nM	26500 nM	550 nM
Nc1nc(Nc2ccc(S(=O)(=O)N3CCCCC3)cc2)nn1C(=O)c1cccs1 [Cpd 23, N^3-[4-(1-piperidinylsulfonyl)phenyl]-1-(2-thienylcarbonyl)-1H-1,2,4-triazole-3,5-diamine]	> 100 µM	> 100 µM	35 nM	35.3 nM	629 nM	> 100 µM	376 nM	424 nM	1180 nM
CC(O)c1ccc(F)c(C(=O)n2nc(Nc3ccc(S(N)(=O)=O)cc3)nc2N)c1F (stereo not drawn) [Cpd 58, 4-[[5-amino-1-[2,6-difluoro-3-(1-hydroxyethyl)benzoyl]-1H-1,2,4-triazol-3-yl]amino]-benzenesulfonamide]	> 100 µM	> 100 µM	419 nM	420 nM	8530 nM	> 100 µM	1270 nM	981 nM	186 nM
CCc1ccc(C(=O)n2nc(Nc3ccc(S(=O)(=O)NCCN(C)C)cc3)nc2N)s1 [Cpd 103, 4-[[5-amino-1-[(5-ethyl-2-thienyl)carbonyl]-1H-1,2,4-triazol-3-yl]amino]-N-[2-(dimethylamino)ethyl]-benzenesulfonamide]	0.123 µM	> 100 µM	45 nM	44.9 nM	702 nM	5.3 µM	75 nM	115 nM	62 nM
Cc1ccsc1C(=O)n1nc(Nc2ccc(N3CCCS3(=O)=O)cc2)nc1N [Cpd 116, N^3-[4-(1,1-dioxido-2-isothiazolidinyl)phenyl]-1-[(3-methyl-2-thienyl)carbonyl]-1H-1,2,4-triazole-3,5-diamine]	> 100 µM	> 100 µM	26 nM	26.1 nM	302 nM	> 100 µM	349 nM	639 nM	380 nM
Nc1nc(Nc2ccc(N3CCCS3(=O)=O)cc2)nn1C(=O)c1c(F)cccc1F [Cpd 117]	> 100 µM	> 100 µM	908 nM	908 nM	> 100000 nM	> 100 µM	1120 nM	2190 nM	2060 nM
Nc1nc(Nc2ccc(S(=O)(=O)Nc3ccccn3)cc2)nn1C(=O)c1c(F)cccc1F [Cpd 118, 4-[[5-amino-1-(2,6-difluorobenzoyl)-1H-1,2,4-triazol-3-yl]amino]-N-(2-pyridinyl)-benzenesulfonamide]	> 100 µM	> 100 µM	397 nM	397 nM	> 100000 nM	> 100 µM	1170 nM	1620 nM	1940 nM
Cc1cc(C)c(C(=O)n2nc(Nc3ccc(S(=O)(=O)Nc4ccccn4)cc3)nc2N)s1 [Cpd 120]	> 100 µM	> 100 µM	82 nM	82 nM	822 nM	> 100 µM	334 nM	259 nM	978 nM
